The values below come from PMC12022153, “Sustainable approach for synthesis of new coumarin-linked Schiff bases in DABCO-based ionic liquid and their identification as aldose reductase inhibitors” (Scientific Reports, 2025).

Read-outs that look alike come from different tables or passages of the source.

For assay [1], the target named is T1, aldehyde reductase (ALR1) (Bos taurus, UniProt Q3ZCJ2).
T1 construct: ALR2 was extracted from the eyes while ALR1 was obtained from the kidneys; from tissue; host or cells: bovine kidneys
Description: Enzyme inhibition assay for ALR1 (aldehyde reductase), NADPH absorbance at 340 nm. In kind it is biochemical, bovine. The following applies: for inhibition at 100 µM: less than 50% so no IC50; for IC50: substrate sodium-D-glucuronate, NADPH, standard valproic acid, value ± SEM. The procedure: (§1) The ALR2 activity was estimated through measuring decrease in absorbance of NADPH in the assay at 340 nm on a spectrophotometer (FLUOstar Omega BMG LABTECH, Germany). The enzyme inhibition assay was carried out via following methods of ALR2 inhibition of our recent study. During the assay, total assay volume was kept 100 consisting of 20 µL of 100 mM sodium phosphate buffer at pH 6.2, 30 µL of the enzyme ([…]; protein concentration 12 µg mL^−1), 10 µL of test compound, and 20 µL of 1 mM substrate DL-glyceraldehyde. First, the reaction mixture was incubated without co-factor (NADPH) then reaction was initiated by addition of 20 µL of NADPH solution of 0.1 mM and monitored for five minutes. The change of absorbance was noted as pre-read and after-read, the percent inhibition was calculated for the tested compounds and standard inhibitor. For ALR1 (aldehyde reductase), sodium-D-glucuronate was employed as a substrate and valproic acid as a standard inhibitor. […] Otherwise, identical protocols were adopted for the ALR1 and ALR2 assays. First, tests compounds were solubilized in dimethyl sulfoxide (DMSO) (100%) and dilutions were prepared with deionized water to keep the concentration of DMSO at 0.1% during the assay. Initially, test compounds were tested at 100 µM. […] The logarithms of the inhibitor concentration were plotted versus the remaining activity of the enzyme, and IC50 values were calculated using non-linear regression analysis in GraphPad Prism Version 8.
(§2) Based on these reports, a library of coumarin-linked Schiff base analogues were designed. […] Compounds were also checked for selectivity via testing their inhibitory potency against ALR1 enzyme. Both aldose reductase enzymes (ALR2 and ALR1) were isolated from bovine; ALR2 was extracted from the eyes while ALR1 was obtained from the kidneys.

The target of assay [2] is T2, aldose reductase (ALR2) (Bos taurus, UniProt P16116).
T2 construct: ALR2 was extracted from the eyes while ALR1 was obtained from the kidneys; from tissue; host or cells: bovine eyes
Description: Enzyme inhibition assay for ALR2 (aldose reductase), NADPH absorbance at 340 nm. Type of assay: biochemical, bovine. Conditions: for selectivity of inhibition, ALR2 versus ALR1: comparison of inhibitory activity against both enzymes; for IC50: read-out: IC50 ± SEM ALR2 Inhibition; for inhibition at 100 µM: less than 50% so no IC50. As to the method: as §1, §2

For assay [3], the system named is aldose reductase (ALR2). The following applies: cited from earlier work.
Where [4] appears, read: test compounds tested at 100 µM, read-out: % Inhibition ALR1.
[5] abbreviates: test compounds tested at 100 µM, read-out: % Inhibition ALR2.

T1 sequence (Q3ZCJ2 whole entry): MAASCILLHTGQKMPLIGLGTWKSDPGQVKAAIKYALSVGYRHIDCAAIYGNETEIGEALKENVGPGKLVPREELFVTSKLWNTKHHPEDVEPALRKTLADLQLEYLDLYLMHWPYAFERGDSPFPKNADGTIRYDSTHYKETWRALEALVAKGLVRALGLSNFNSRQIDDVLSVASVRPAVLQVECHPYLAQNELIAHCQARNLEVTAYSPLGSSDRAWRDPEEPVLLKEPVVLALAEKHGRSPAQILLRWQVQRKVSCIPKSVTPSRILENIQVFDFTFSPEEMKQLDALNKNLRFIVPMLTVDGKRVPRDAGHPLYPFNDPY

By inhibition is commonly meant the percentage by which the read-out fell short of the control. As to `O=c1oc2ccccc2cc1COc1ccccc1C=NNc1ccccc1` [Compound 5, 3-((2′-((2-Phenylhydrazineylidene)methyl)phenoxy)methyl)-2H-chromen-2-one], the inhibition at 100 µM in assay [1] (setting [4]) was found to be 45.1%. In assay [2], the “selectivity of inhibition, ALR2 versus ALR1” value (“selectivity of inhibition” for short) was “selective inhibition against ALR2 enzyme” and the IC50 turned out to be 11.2 ± 0.029 µM.

For the compound `O=c1oc2ccccc2cc1COc1ccccc1C=NNc1ccc(F)cc1` [Compound 6, 3-((2′-((2-(4′′-Fluorophenyl)hydrazineylidene)methyl)phenoxy)methyl)-2H-chromen-2-one], in assay [1] (setting [4]), the inhibition at 100 µM was determined as 45.2%. Further, in assay [2], the “selectivity of inhibition” value is on record as “selective inhibition against ALR2 enzyme” and the IC50 came to 2.2 ± 0.024 µM.

Consider `O=c1oc2ccccc2cc1COc1ccccc1C=NNc1ccccc1Cl` [Compound 7, 3-((2′-((2-(2′′-Chlorophenyl)hydrazineylidene)methyl)phenoxy)methyl)-2H-chromen-2-one], for which the values for the IC50 in assay [1] and in assay [2] were 14.49 ± 0.052 µM and 3.61 ± 0.016 µM, respectively.

For `O=c1oc2ccccc2cc1COc1ccccc1C=NNc1cccc(Cl)c1` [Compound 8, 3-((2′-((2-(3′′-Chlorophenyl)hydrazineylidene)methyl)phenoxy)methyl)-2H-chromen-2-one], the IC50 in assay [1] is 5.96 ± 0.035 µM; in assay [2], 2.94 ± 0.083 µM.

For the compound `O=c1oc2ccccc2cc1COc1ccccc1C=NNc1ccc(Cl)cc1` [Compound 9, 3-((2′-((2-(4′′-Chlorophenyl)hydrazineylidene)methyl)phenoxy)methyl)-2H-chromen-2-one], the results for the IC50 in assay [1] and in assay [2] were 4.07 ± 0.078 µM and 2.84 ± 0.032 µM, respectively.

As for `O=c1oc2ccccc2cc1COc1ccccc1C=NNc1ccccc1Br` [Compound 10, 3-((2′-((2-(2′′-Bromophenyl)hydrazineylidene)methyl)phenoxy)methyl)-2H-chromen-2-one], the inhibition at 100 µM in assay [1] (setting [4]) and in assay [2] (setting [5]) was less than 50% in each case.

Regarding `O=c1oc2ccccc2cc1COc1ccccc1C=NNc1ccc(Br)cc1` [Compound 11, 3-((2′-((2-(4′′-Bromophenyl)hydrazineylidene)methyl)phenoxy)methyl)-2H-chromen-2-one], the inhibition at 100 µM in assay [1] (setting [4]) and in assay [2] (setting [5]) was less than 50% throughout.

`Cc1ccccc1NN=Cc1ccccc1OCc1cc2ccccc2oc1=O` [Compound 12, 3-((2′-((2-(o-Tolyl)hydrazineylidene)methyl)phenoxy)methyl)-2H-chromen-2-one]: the inhibition at 100 µM in assay [1] (setting [4]) amounted to 37.9%. In assay [2], the “selectivity of inhibition” value is listed as “selective inhibition against ALR2 enzyme” and the IC50 was found to be 3.66 ± 0.068 µM.

With `Cc1ccc(NN=Cc2ccccc2OCc2cc3ccccc3oc2=O)cc1` [Compound 13, 3-((2′-((2-(p-Tolyl)hydrazineylidene)methyl)phenoxy)methyl)-2H-chromen-2-one], the inhibition at 100 µM in assay [1] (setting [4]) came out at 34.2%. In assay [2], the “selectivity of inhibition” value was “selective inhibition against ALR2 enzyme” and the IC50 was found to be 4.64 ± 0.045 µM.

As for `CCc1ccccc1NN=Cc1ccccc1OCc1cc2ccccc2oc1=O` [Compound 14, 3-((2′-((2-(2′′-Ethylphenyl)hydrazineylidene)methyl)phenoxy)methyl)-2H-chromen-2-one], the IC50 in assay [1] turned out to be 12.9 ± 0.013 µM. For the same compound, in assay [2], the “selectivity of inhibition” value was “non-selective inhibitions” and the IC50 came out at 6.52 ± 0.077 µM.

With `COc1ccc(NN=Cc2ccccc2OCc2cc3ccccc3oc2=O)cc1` [Compound 15, 3-((2′-((2-(4′′-Methoxyphenyl)hydrazineylidene)methyl)phenoxy)methyl)-2H-chromen-2-one], the IC50 in assay [1] came to 4.21 ± 0.023 µM; in assay [2], 10.19 ± 0.034 µM. Moreover, the “selectivity of inhibition” value in assay [2] is given as “non-selective inhibitions”.

For `N#Cc1ccc(NN=Cc2ccccc2OCc2cc3ccccc3oc2=O)cc1` [Compound 16, 4′′-(2-(2′-((2-Oxo-2H-chromen-3-yl)methoxy)benzylidene)hydrazineyl)benzonitrile], the inhibition at 100 µM in assay [1] (setting [4]) came to 42.9%; in assay [2] (setting [5]), 39.2%.

With `O=c1oc2ccccc2cc1COc1ccccc1C=NNc1ccccc1[N+](=O)[O-]` [Compound 17, 3-((2′-((2-(2′′-Nitrophenyl)hydrazineylidene)methyl)phenoxy)methyl)-2H-chromen-2-one], the inhibition at 100 µM in assay [1] (setting [4]) worked out at 33.2%; in assay [2] (setting [5]) it was 45.6%.

Consider `O=c1oc2ccccc2cc1COc1ccccc1C=NNc1cccc([N+](=O)[O-])c1` [Compound 18, 3-((2′-((2-(3′′-Nitrophenyl)hydrazineylidene)methyl)phenoxy)methyl)-2H-chromen-2-one], for which the results for the inhibition at 100 µM in assay [1] (setting [4]) and in assay [2] (setting [5]) were 35.7% and 42.9%, respectively.

Consider `Cc1cccc(NN=Cc2ccccc2OCc2cc3ccccc3oc2=O)c1C` [Compound 19, 3-((2′-((2-(2′′,3′′-Dimethylphenyl)hydrazineylidene)methyl)phenoxy)methyl)-2H-chromen-2-one], for which the inhibition at 100 µM in assay [1] (setting [4]) worked out at 37%. In addition, in assay [2], the “selectivity of inhibition” value is on record as “selective inhibition against ALR2 enzyme” and the IC50 was 1.61 ± 0.049 µM.

Turning to `Cc1ccc(NN=Cc2ccccc2OCc2cc3ccccc3oc2=O)c(C)c1` [Compound 20, 3-((2′-((2-(2′′,4′′-Dimethylphenyl)hydrazineylidene)methyl)phenoxy)methyl)-2H-chromen-2-one], the IC50 in assay [1] was 3.29 ± 0.064 µM. Moreover, in assay [2], the “selectivity of inhibition” value is given as “non-selective inhibitions” and the IC50 is 7.63 ± 0.061 µM.

For `O=c1oc2ccccc2cc1COc1ccccc1C=NNc1ccc(Cl)c(Cl)c1` [Compound 21, 3-((2′-((2-(3′′,4′′-Dichlorophenyl)hydrazineylidene)methyl)phenoxy)methyl)-2H-chromen-2-one], the IC50 in assay [1] worked out at 11.23 ± 0.065 µM. Also, in assay [2], the “selectivity of inhibition” value is reported as “non-selective inhibitions” and the IC50 is 4.07 ± 0.083 µM.

In the case of `O=c1oc2ccccc2cc1COc1ccccc1C=NNc1ccc([N+](=O)[O-])cc1[N+](=O)[O-]` [Compound 22, 3-((2′-((2-(2′′,4′′-Dinitrophenyl)hydrazineylidene)methyl)phenoxy)methyl)-2H-chromen-2-one], the inhibition at 100 µM in assay [1] (read-out: % Inhibition ALR1, test compounds tested at 100 µM) is less than 50%; in assay [2] (read-out: % Inhibition ALR2, test compounds tested at 100 µM), less than 50%.

Compound `CCCC(CCC)C(=O)O` [Valproic acid, reference compound] registered an IC50 in assay [1] of 57.4 ± 0.89 µM.

In the case of `C/C(=N\NC(=S)Nc1ccccc1F)c1cc2ccccc2oc1=O` [XV], in assay [3], the “selectivity relative to ALR1 enzyme” value is reported as “high selectivity”. Moreover, in assay [3] (coumarin-tethered thiosemicarbazones, read-out: IC50 ALR2 / aldose reductase inhibition), the IC50 is 2.07 µM.
